Tests used:
Type in all cases: physicochemical
[1] = Test on solubility in ethanol; conditions: 40 mg in ethanol 2 mL, ultrasonically treated one minute, room temperature 30 minutes or more, absorbance at 330 nm
Procedure: [Test on Solubility in Ethanol]
The crystal (40 mg) obtained in Example 1 was added to ethanol (2 mL), and was ultrasonically treated for one minute. The solution was left at room temperature for 30 minutes or more, and thereafter the resulting precipitate was centrifuged and the resulting supernatant was diluted with dimethyl sulfoxide to analyze the concentration at an absorbance at 330 nm.
The crystal (40 mg) obtained in Example 2 was added to ethanol (2 mL), and was ultrasonically treated for one minute. The solution was left at room temperature for 30 minutes or more, and thereafter the resulting precipitate was centrifuged and the resulting supernatant was diluted with dimethyl sulfoxide to analyze the concentration at an absorbance at 330 nm.
The crystal (40 mg) obtained in Comparative Example 1 was added to ethanol (2 mL), and was ultrasonically treated for one minute. The solution was left at room temperature for 30 minutes or more, and thereafter the resulting precipitate was centrifuged and the resulting supernatant was diluted with dimethyl sulfoxide to analyze the concentration at an absorbance at 330 nm. The concentration was 1.4 mg/ML.

[2] = Dispersibility in ethanol: gelation test; conditions: for Homogeneity of ethanol mixture (upper and lower portions) / Appearance of ethanol mixture after standing: 20 mg in ethanol 2 mL; for Homogeneity of ethanol mixture (upper and lower portions): left at 20° C. for two to three hours; for Appearance of ethanol mixture after standing: ultrasonically treated one minute, left at 20° C. for two hours; for Appearance after adding ethanol mixture to water: 20 μL of gelled product / ethanol mixture added to water 1 mL
Procedure: [Dispersibility in Ethanol: Gelation Test]
The crystal (20 mg) obtained in Example 1 was added to ethanol (2 mL), and was ultrasonically treated for one minute. […] The gelled product was generated through the following process: the reduced PQQ crystals according to the present invention turned into fibers, and alcohol was encapsulated between these fibers in the form of a net to generate a gel.
The solid (20 mg) obtained in Comparative Example 1 was added to ethanol (2 mL), and was ultrasonically treated for one minute.

[3] = Test on solubility in water; conditions: 30 mg in water 1 mL, ultrasonically treated one minute, room temperature 30 minutes or more, absorbance at 310 nm
Procedure: [Test on Solubility in Water]
The crystal (30 mg) obtained in Example 1 was added to water (1 mL), and was ultrasonically treated for one minute. The solution was left at room temperature for 30 minutes or more, and thereafter the resulting precipitate was centrifuged and the resulting supernatant was diluted with water to analyze the concentration at an absorbance at 310 nm. The concentration was 0.13 mg/mL.
The crystal (30 mg) obtained in Example 2 was added to water (1 mL), and was ultrasonically treated for one minute. The solution was left at room temperature for 30 minutes or more, and thereafter the resulting precipitate was centrifuged and the resulting supernatant was diluted with water to analyze the concentration at an absorbance at 310 nm. The concentration was 0.14 mg/mL.
The solid (30 mg) obtained in Comparative Example 1 was added to water (1 mL), and was ultrasonically treated for one minute. The solution was left at room temperature for 30 minutes or more, and thereafter the resulting precipitate was centrifuged and the resulting supernatant was diluted with water to analyze the concentration at an absorbance at 310 nm. The concentration was 0.019 mg/mL.

[4] = Test on stability of crystal (dispersed in water); conditions: 0.2 g mixed with water 1 mL, room temperature
Procedure: [Test on Stability of Crystal (Dispersed in Water)]
The crystal (0.2 g) obtained in Example 1 was mixed with water (1 mL).
The solid (0.2 g) obtained in Comparative Example 1 was mixed with water (1 mL).
The crystal (0.2 g) obtained in Comparative Example 2 was mixed with water (1 mL).

| Structure (SMILES) | Solubility in ethanol (concentration of supernatant) [1] | Homogeneity of ethanol mixture (upper and lower portions) [2] | Appearance of ethanol mixture after standing [2] | Appearance after adding ethanol mixture to water [2] | Solubility in water (concentration of supernatant) [3] | Appearance dispersed in water after one hour [4] | Appearance dispersed in water after two days [4] | Dispersibility (overall conclusion) ([2]; ethanol gelation test, compared with Comparative Example 1) |
| --- | --- | --- | --- | --- | --- | --- | --- | --- |
| O=C(O)c1cc(C(=O)O)c2c(n1)c(O)c(O)c1cc(C(=O)O)[nH]c12 [Comparative Example 1, reduced pyrroloquinoline quinone] | 1400 µg/mL | had a difference between the upper and lower portions | a black solid was sedimented and the solution was slightly yellowed | a solution having a black solid sedimented therein | 19 µg/mL | a solution having a black solid sedimented therein |  |  |
| O=C(O)c1cc(C(=O)O)c2c(n1)c(O)c(O)c1cc(C(=O)O)[nH]c12 [Comparative Example 2, reduced pyrroloquinoline quinone] |  |  |  |  |  | dark red dispersion | a black precipitate was generated and the solution was not homogenous |  |
| O=C(O)c1cc(C(=O)O)c2c(n1)c(O)c(O)c1cc(C(=O)O)[nH]c12 [Example 1, reduced pyrroloquinoline quinone] | 8500 µg/mL | homogenous without any difference between upper and lower portions | orange gelled product | yellow homogenous dispersion | 130 µg/mL | yellow homogenous dispersion | the dispersion remained the same | significantly high dispersibility |
| O=C(O)c1cc(C(=O)O)c2c(n1)c(O)c(O)c1cc(C(=O)O)[nH]c12 [Example 2, reduced pyrroloquinoline quinone] | 3200 µg/mL |  |  |  | 140 µg/mL |  |  |  |
